The results in this text go back to PMC4664966, “Discovery and characterization of novel inhibitors of the sodium-coupled citrate transporter (NaCT or SLC13A5)” (Scientific Reports, 2015).

A value given as a limit tells only on which side of the number the result lay.

In data set [1] the test system is parental HEK-293 cells. Put plainly: Whole cell binding experiments with [3H]-2, parental HEK-293 cells. To be noted: 75 nM. Details: species or system human. How it is done: Parental HEK-293 cells or HEK-293 cells expressing SLC13A5 were incubated with [^3H]-2 at 75 nM. See supplemental methods for additional details. […]
were plated, and incubated for 48 hours. Following the incubation, NaDC1 and NaDC3 assays were executed identical to the procedure for NaCT.
Binding experiments with [3H]-2. Parental HEK-293 cells or cells overexpressing SLC13A5 were incubated in the media with 75 nM of [3H]-2. These cells were also incubated with either 0, […]
was monitored for 2-hours. The uptake of radioactivity was monitored on Perkin Elmer Microbeta plate reader. In experiments in which cold 2 was added to the media, after 2-hours, the cells were washed 3x with PBS, and then in fresh media 100 μM cold 2 was added for 2-hours and the disappearance of radioactivity was monitored using a Perkin Elmer Microbeta […]
Intra- and extracellular concentrations of compound in cellular assays. kpuu values were determined by measuring total cell and media concentrations corrected for their respective fraction unbound. Detailed methods to determine intra- and extracellular concentrations of […]
Crystallization and X-ray analysis of (S)-2-(4-(tert-butyl)phenethyl)-2-hydroxysuccinic […]
Crystallization conditions. Ethyl acetate (50 mL) was added to (S)-2-(4-(tert-butyl)phenethyl)- 2-hydroxysuccinic acid (3) ([…], 46.2 mmol). The suspension turned to a solution upon heating. […]

A short description of data set [2]: Stability in human hepatocytes. To be noted: metabolically competent human hepatocytes. It counts as in vitro ADME.
In data set [3] the target is NaCT (SLC13A5) (Homo sapiens, UniProt Q86YT5). Put plainly: Inhibition of citrate uptake in HEKNaCT cells. The data set is classed as cell-based. To be noted: geometric mean of at least 3 replicates.
Chain of NaCT (SLC13A5) (Q86YT5 whole entry): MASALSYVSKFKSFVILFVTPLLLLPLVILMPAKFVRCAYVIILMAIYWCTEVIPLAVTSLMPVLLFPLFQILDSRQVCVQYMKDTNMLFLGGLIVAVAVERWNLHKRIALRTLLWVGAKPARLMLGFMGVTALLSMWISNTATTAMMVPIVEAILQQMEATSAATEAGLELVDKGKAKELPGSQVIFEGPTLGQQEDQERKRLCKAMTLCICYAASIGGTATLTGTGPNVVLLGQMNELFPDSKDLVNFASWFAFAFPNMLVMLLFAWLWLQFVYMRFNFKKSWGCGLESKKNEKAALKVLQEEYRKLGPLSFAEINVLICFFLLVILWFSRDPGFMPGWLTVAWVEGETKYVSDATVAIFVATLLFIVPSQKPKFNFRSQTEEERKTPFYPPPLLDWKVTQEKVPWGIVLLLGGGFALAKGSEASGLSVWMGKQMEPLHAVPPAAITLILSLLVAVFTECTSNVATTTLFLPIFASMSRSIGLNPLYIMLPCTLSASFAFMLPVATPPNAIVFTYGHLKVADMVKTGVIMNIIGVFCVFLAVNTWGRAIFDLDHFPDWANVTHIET
Description: HEK-293 cells stably transfected with the human sodium Citrate transporter SLC13A5 or transiently transfected with the human SLC13A2 or SLC13A3 transporter were removed from the flasks with dissociation buffer and re-suspended in an equal volume of growth media (DMEM, High Glucose supplemented with 10% heat inactivated fetal bovine serum and 500 μg/ml Geneticin). For the transient transfections, Geneticin was eliminated from the media. Cell suspensions were centrifuged at 1,000 rpm for approximately 5 minutes. Resulting cell pellets were re-suspended in growth media and placed in a 37 °C water bath for approximately 10 minutes prior to a final spin at 1,000 rpm. […] Cell suspensions were counted and the concentration adjusted as needed with assay buffer to 2e[6] viable cells /mL. 20 μL of cell suspension were added to 384-well cyotstar-T plates followed by the addition of 5 μL of 10× concentration of compound. […] After substrate addition, the uptake of radioactivity was monitored on Perkin Elmer Microbeta plate reader. Data from reads between 45–90 minutes was used to assess the ability of test compounds to inhibit the uptake of citric or succinic acid.
Data set [4] in a line: Stability in assay media. The data set is classed as in vitro ADME. The note with it: read-out: t1/2 in assay media.
Data set [5] relates to HEKNaCT cells. The data set can be described thus: Stability in HEKNaCT cells. The data set is classed as in vitro ADME, human. To be noted: data not shown.
The target of data set [6] is T1, NaCT in cryopreserved human hepatocytes (Homo sapiens, UniProt Q86YT5).
T1 construct: the transporter was in its native environment, we used cryopreserved human hepatocytes; endogenous in cells; host or cells: cryopreserved human hepatocytes
T1 sequence (Q86YT5 whole entry): as above
The data set can be described thus: Inhibition of citrate uptake in cryopreserved human hepatocytes. It counts as cell-based. The note with it: geometric mean of at least 3 replicates.

A short description of data set [7]: Passive permeability, MDCK-LE cell monolayer. The data set is classed as in vitro ADME. The note with it: dog, MDCK; read-out: Papp (passive permeability). How it is done: Passive permeability was assessed using MDCK-LE cell monolayer as described previously in Di et al., (2011)[44].
Data set [8] has as its system human hepatocytes. The data set can be described thus: Incorporation of [14C]-citrate into triglycerides by human hepatocytes. It counts as cell-based. To be noted: radiolabeled citrate for 24 hours. The method, then:
Incorporation of [^14C]-citrate into triglycerides by human hepatocytes was measured using the same procedure as above except cells were incubated with the radioactive citrate for 24 hours. Subsequently, the media was aspirated and 100 μL of isopropyl alcohol:THF (9:1) was added. The plate was shaken for 15 minutes, centrifuged at 3000 revolutions per minute for 5 minutes, and 50 μL of supernatant from each well was applied per TLC lane (Whatman LK6D Silica Gel Plates). Radiolabeled lipids were resolved using a 2-solvent system: Solvent 1 contained a 100:100:100:40:36 mixture of ethyl acetate:isopropyl alcohol:CHCl3:MeOH:0.25% KCl and Solvent 2 a 70:27:3 hexane:diethyl ether:acetic acid mixture. The TLC plate was dried under nitrogen for 30 minutes and [^14C]-standards added to a vacant lane. Bands were visualized and quantitated using a Molecular Dynamics’ Storm 860 PhosphorImager system following 18–36 hours exposure to a Phosphorimager screen.

A short description of data set [9]: Intra-/extracellular unbound concentration ratio (Kpuu) in HEKNaCT cells. To be noted: human, ratio of free intracellular and media concentration after 1 h incubation at 1 μM, geometric mean of 3 replicates ± SD. The data set is classed as in vitro ADME. How it is done: (§1) kpuu values were determined by measuring total cell and media concentrations corrected for their respective fraction unbound. Detailed methods to determine intra- and extracellular concentrations of compound in the HEKNaCT cells and human hepatocytes will be the subject of a separate manuscript that is under preparation. […]
(§2) Intra- and extracellular concentrations of compound in cellular assays. kpuu values were determined by measuring total cell and media concentrations corrected for their respective […]
(§3) fraction unbound. […]
(§4) The solution was heated to reflux until the total volume was reduced to ~25 mL.
(§5) Hexane (25 mL) was added and the mixture was brought back to reflux than allowed to slowly cool to room temperature. After standing at room temperature for 16 h, the resulting suspension was filtered and dried under high vacuum to yield (S)-2-(4-(tert-butyl)phenethyl)-2-hydroxysuccinic acid (3) as a white solid. The filtrate was allowed to stand at room temperature for 4 days. The solvent evaporated to ~15 mL and large, colorless crystals formed.
(§6) X-ray analysis. Data collection was performed on a Bruker APEX diffractometer at room temperature. Data collection consisted of 3 omega scans and low angle and three at high angle; each with 0.5 step. In addition, 2 phi scans were collected to improve the quality of the […]

Data set [10] is described as follows: Intra-/extracellular unbound concentration ratio (Kpuu) in human hepatocytes. It counts as in vitro ADME. The note with it: cryopreserved hepatocytes, ratio of free intracellular and media concentration after 1 h incubation at 1 μM, geometric mean of 3 replicates ± SD. The method, then:
as §1, §2, §3, §4, §5, §6

Data set [11] concerns HEKNaCT cells. Put plainly: OCR and ECAR measurements in HEKNaCT cells incubated with citrate (Seahorse). The note with it: 30 μM compound. The data set is classed as cell-based, human. The method, then: HEKNaCT cells were plated at 12,000 cells/well onto a poly-d-lysine coated XF96 plate (Sigma, Seahorse Biosciences). Cells were plated in culture media containing HG DMEM, 10% FBS, 2 mM glutamine, 1 mM pyruvate, 0.5 mg/mL Geneticin, and 1% penicillin/streptomycin (Life Technologies) and incubated overnight at 37 °C. The following day, the media was changed to Seahorse Biosciences assay medium (Seahorse Biosciences) supplemented with 10 mM glucose and 2 mM pyruvate (Sigma). The plate was pre-incubated for 1 hour in a 37 °C air incubator. […]

Data set [12] concerns the target T2, NaDC1 (SLC13A2) (Homo sapiens, UniProt Q13183).
T2 construct: host or cells: HEK-293, transient (Fugene HD)
T2 sequence (Q13183 1-592): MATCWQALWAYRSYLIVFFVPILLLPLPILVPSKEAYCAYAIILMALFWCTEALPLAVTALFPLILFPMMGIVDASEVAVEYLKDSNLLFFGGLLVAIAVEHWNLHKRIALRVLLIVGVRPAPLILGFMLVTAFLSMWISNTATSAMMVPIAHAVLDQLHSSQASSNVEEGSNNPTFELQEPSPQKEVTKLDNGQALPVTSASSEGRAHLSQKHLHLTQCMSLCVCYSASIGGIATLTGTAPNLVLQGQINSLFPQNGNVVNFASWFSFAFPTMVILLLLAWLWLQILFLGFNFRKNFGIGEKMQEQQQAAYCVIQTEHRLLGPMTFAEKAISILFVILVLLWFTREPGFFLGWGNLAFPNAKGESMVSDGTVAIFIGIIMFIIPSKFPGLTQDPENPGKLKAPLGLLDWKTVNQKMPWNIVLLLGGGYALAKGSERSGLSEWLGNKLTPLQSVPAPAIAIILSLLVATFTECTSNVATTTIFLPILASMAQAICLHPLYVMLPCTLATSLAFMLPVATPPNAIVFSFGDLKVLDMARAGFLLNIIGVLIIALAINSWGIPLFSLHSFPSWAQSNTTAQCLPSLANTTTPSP
The data set can be described thus: Inhibition of citrate or succinate uptake in HEKNaDC1 cells. The note with it: compound 4: mean of 2 replicates. The data set is classed as cell-based. The source says:
(§7) Protocols to generate the stable cell line overexpressing NaCT or cell transfection with SLC13A2 or SLC13A3 can be found in the supporting information. HEK-293 cells stably transfected with the human sodium Citrate transporter SLC13A5 or transiently transfected with the human SLC13A2 or SLC13A3 transporter were removed from the flasks with dissociation buffer and re-suspended in an equal volume of growth media (DMEM, High Glucose supplemented with 10% heat inactivated fetal bovine serum and 500 μg/ml Geneticin). For the transient transfections, Geneticin was eliminated from the media. Cell suspensions were centrifuged at 1,000 rpm for approximately 5 minutes. Resulting cell pellets were re-suspended in growth media and placed in a 37 °C water bath for approximately 10 minutes prior to a final spin at 1,000 rpm. Following this spin the resulting cell pellets were re-suspended in assay buffer, 142 mM NaCl (or 142 mM choline chloride), 5 mM KCl, 1.2 mM MgSO4, 1.5 mM CaCl, 5 mM glucose and 25 mM HEPES pH 7.4. Cell suspensions were counted and the concentration adjusted as needed with assay buffer to 2e[6] viable cells /mL. 20 μL of cell suspension were added to 384-well cyotstar-T plates followed by the addition of 5 μL of 10× concentration of compound. Cells and compound were incubated at 37 °C for approximately 30 minutes prior to the addition of 25 μL of 300 μM citric acid (16 μM radiolabeled [^14C]-citric acid and 284 μM cold citric acid) to make a 150 μM final concentration of citric acid or 21 μM [^14C]-succinic acid. After substrate addition, the uptake of radioactivity was monitored on Perkin Elmer Microbeta plate reader. Data from reads between 45–90 minutes was used to assess the ability of test compounds to inhibit the uptake of citric or succinic acid. […]
(§8) were plated, and incubated for 48 hours. Following the incubation, NaDC1 and NaDC3 assays were executed identical to the procedure for NaCT. […]
(§9) The solution was heated to reflux until the total volume was reduced to ~25 mL. […]

The target in data set [13] is T3, NaDC3 (SLC13A3) (Homo sapiens, UniProt Q8WWT9).
T3 construct: host or cells: HEK-293, transient (Fugene HD)
T3 sequence (Q8WWT9 1-602): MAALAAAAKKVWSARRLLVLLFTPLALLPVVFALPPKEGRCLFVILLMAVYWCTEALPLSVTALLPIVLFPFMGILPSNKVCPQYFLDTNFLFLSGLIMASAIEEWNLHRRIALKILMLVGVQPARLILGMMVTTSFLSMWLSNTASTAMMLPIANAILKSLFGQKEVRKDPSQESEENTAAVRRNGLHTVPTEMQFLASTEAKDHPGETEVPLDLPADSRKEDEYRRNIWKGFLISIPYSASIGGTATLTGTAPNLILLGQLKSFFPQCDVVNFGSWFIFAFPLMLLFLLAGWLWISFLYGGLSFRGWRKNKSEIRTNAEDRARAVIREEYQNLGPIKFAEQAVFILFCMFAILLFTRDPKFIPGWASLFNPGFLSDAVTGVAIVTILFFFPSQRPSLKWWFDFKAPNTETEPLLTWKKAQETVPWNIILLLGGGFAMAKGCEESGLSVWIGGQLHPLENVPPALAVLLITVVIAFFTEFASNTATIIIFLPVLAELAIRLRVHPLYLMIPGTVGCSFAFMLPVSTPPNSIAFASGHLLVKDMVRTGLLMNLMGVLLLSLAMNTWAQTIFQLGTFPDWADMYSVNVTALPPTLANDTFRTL
Put plainly: Inhibition of citrate or succinate uptake in HEKNaDC3 cells. The data set is classed as cell-based. To be noted: compound 4: mean of 2 replicates.
Excerpt: as §7, §8, §9

The subject of data set [14] is HEK-293-derived cells. The data set can be described thus: Cell viability, CellTiter-glo, HEK-293-derived cells. The arrangement: species or system human. The note with it: HEK-293-derived cell-based assay conditions. The method, then:
For cell viability, cells are incubated with compound for 90 minutes at 37 °C. Following this incubation, 25 μL Cell Titer-Glo (Promega) was added to the plates which were then analyzed on the Envision (luminescence).
On the technique in general: Cellular ATP, detected with luciferase, serves as a proxy for viable cell number.

As for `[3H]C([3H])(c1ccc(C(C)(C)C)cc1)C([3H])([3H])[C@@](O)(CC(=O)O)C(=O)O` [[^3H]-2], the “interaction with parental HEK-293 cells” value in data set [1] is on record as “no significant interaction”.
As usually defined, the IC50 is the concentration at which inhibition is half-maximal. A high value points to lower potency. In general, Papp refers to the rate of passage across a membrane or cell layer, normalised by area and donor concentration. Regarding `CCOC(=O)[C@@](O)(CCc1ccc(C(C)(C)C)cc1)CC(=O)O` [Compound 5], the results for the half-life in [2] and in [4] were 29 min and greater than 120 min, respectively. Further, the IC50 in [3] is greater than 25 µM; in [6], 6.76 µM. In addition, the “stability in HEKNaCT cells” value in data set [5] is “stable”. Besides, the Papp in data set [7] is 13 ×10⁻⁶ cm/s.
On to `CC(C)(C)c1ccc(CC[C@](O)(CC(=O)O)C(=O)O)cc1` [Compound 3, (S)-2-(4-(tert-butyl)phenethyl)-2-hydroxysuccinic acid], for which the “label incorporation in TAG” value in data set [8] is given as “not”. For the same compound, the Kp uu at 1 h, 1 µM in data set [9] amounted to 0.6 ± 0.2; in [10] it was 0.4 ± 0.1. Further, the “effect on citrate induced increase in oxygen consumption rate (OCR)” value in data set [11] is on record as “not”. Moreover, the “effect on citrate suppressed extracellular acidification rate (ECAR)” value in [11] (citrate) is “not”.
Regarding `O=C(O)C[C@](O)(CCc1ccc(I)cc1)C(=O)O` [Compound 4], the IC50 in data set [12] worked out at 5.5 µM; in [13] it was 3.2 µM.
Regarding `CC(C)(C)c1ccc(CCC(O)(CC(=O)O)C(=O)O)cc1` (stereo not drawn) [Compound 1], in [14], the “cellular toxicity (CellTiter-glo assessment)” value is reported as “No cellular toxicity”.
